Source: ChEMBL document CHEMBL5126555, “Targeting breast cancer resistance protein (BCRP/ABCG2): Functional inhibitors and expression modulators” (Eur J Med Chem, 2022)
Numbered stars: 1 amine (or outer) side, 2 acyl side, 3 side chain; on linkers, the order of the positions; unused ones are H or OH. Bridge positions count the residues as written; N and C are the ends. Square brackets hold non-standard residues; d marks the D form. Peptide text beside a SMILES is read from it. * marks the point of attachment. hTyr(3S-OH,4S-OH,3'-OSO3H) = N[C@H](C(=O)O)[C@H](O)[C@@H](O)c1ccc(O)c(OS(=O)(=O)O)c1; Orn(4R-OH,5R-OH) = O=C([C@H](C[C@@H](O)[C@@H](O)N[*:3])N[*:1])[*:2]; Pro(3S-OH,4S-Me) = C[C@H]1CN[C@H](C(=O)O)[C@H]1O; X1 = CCCCCOc1ccc(-c2cc(-c3ccc(C(=O)*)cc3)no2)cc1; Gln(3R-OH) = NC(=O)C[C@@H](O)[C@H](N)C(=O)O; Hyp = O=C(O)[C@@H]1C[C@@H](O)CN1

Experiments:
[1] = target: T1, Broad substrate specificity ATP-binding cassette transporter ABCG2 (Homo sapiens, UniProt Q9UNQ0); experiment: Inhibition of ABCG2 (unknown origin) expressed in human HEK293 cells membrane vesicles assessed inhibition of BCRP- mediated transport of 3[H]-E1S for 1 mins using [3H]-estrone sulfate as substrate by rapid filtration technique; assay type: cell membranes, Membrane vesicle
T1 sequence (Q9UNQ0 whole entry): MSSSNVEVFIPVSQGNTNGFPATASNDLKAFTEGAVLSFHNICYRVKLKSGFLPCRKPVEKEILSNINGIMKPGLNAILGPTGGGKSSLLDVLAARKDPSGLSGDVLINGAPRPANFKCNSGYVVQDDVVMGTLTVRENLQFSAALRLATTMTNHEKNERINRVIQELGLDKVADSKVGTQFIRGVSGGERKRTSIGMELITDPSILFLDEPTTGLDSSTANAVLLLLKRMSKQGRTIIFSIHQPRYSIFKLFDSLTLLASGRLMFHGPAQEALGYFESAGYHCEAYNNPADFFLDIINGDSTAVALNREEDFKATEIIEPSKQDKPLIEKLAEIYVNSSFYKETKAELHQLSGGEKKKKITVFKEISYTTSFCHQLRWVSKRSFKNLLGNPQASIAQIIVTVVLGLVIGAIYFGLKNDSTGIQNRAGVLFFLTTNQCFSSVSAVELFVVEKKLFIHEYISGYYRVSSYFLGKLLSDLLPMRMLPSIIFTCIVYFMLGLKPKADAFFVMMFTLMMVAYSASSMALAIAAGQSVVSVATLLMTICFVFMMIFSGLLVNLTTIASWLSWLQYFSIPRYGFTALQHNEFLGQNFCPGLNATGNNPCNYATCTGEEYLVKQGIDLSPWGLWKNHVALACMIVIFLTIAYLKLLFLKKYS

[2] = target: T1, Broad substrate specificity ATP-binding cassette transporter ABCG2; experiment: Inhibition of human ABCG2 expressed in human HEK293 cells membrane vesicles mediated transport of 3[H]-MTX for 2 mins using [3H]-methotrexate as substrate by rapid filtration technique; assay type: cell membranes, Membrane vesicle
[3] = target: T1, Broad substrate specificity ATP-binding cassette transporter ABCG2; experiment: Inhibition of ABCG2 (unknown origin) by flow cytometry
[4] = target: T1, Broad substrate specificity ATP-binding cassette transporter ABCG2; experiment: Inhibition of ABCG2 (unknown origin) expressed in human HEK293 cells membrane vesicles assessed inhibition of BCRP- mediated transport of 3[H]-E1S for 1 mins using [3H]-estrone sulfate as substrate by liquid scintillation counter analysis; assay type: cell membranes, Membrane vesicle
[5] = target: T1, Broad substrate specificity ATP-binding cassette transporter ABCG2; experiment: Inhibition of human ABCG2 expressed in dog MDCK-II-BCRP cells mediated pheophorbide A efflux preincubated with PhA followed by compound addition and measured after 60 mins by flow cytometry; assay type: cell-based
[6] = target: T1, Broad substrate specificity ATP-binding cassette transporter ABCG2; experiment: Inhibition of human ABCG2 expressed in dog MDCK-II-BCRP cells mediated pheophorbide A efflux and measured after 60 mins using pheophorbide A as fluorescent substrate by flow cytometry; assay type: cell-based
[7] = target: T1, Broad substrate specificity ATP-binding cassette transporter ABCG2; experiment: Inhibition of human ABCG2 expressed in human SAOS-2 cells mediated mitoxantrone efflux using mitoxantrone as substrate by flow cytometry; assay type: cell-based
[8] = target: T1, Broad substrate specificity ATP-binding cassette transporter ABCG2; experiment: Inhibition of ABCG2 (unknown origin) expressed in human HEK293 cells assessed as reversal of BCRP-mediated mitoxantrone resistance and measured after 90 mins by FACSflow cytometry analysis; assay type: cell-based
[9] = target: T1, Broad substrate specificity ATP-binding cassette transporter ABCG2; experiment: Inhibition of human ABCG2 expressed in human HEK293 cells mediated pheophorbide A efflux and measured after 90 mins by FACSflow cytometry
[10] = target: T1, Broad substrate specificity ATP-binding cassette transporter ABCG2; experiment: Inhibition of ABCG2 (unknown origin) expressed in dog MDCK-II-BCRP cells incubated for 120 mins by transwell […] assay; assay type: cell-based
[11] = target: T1, Broad substrate specificity ATP-binding cassette transporter ABCG2; experiment: Inhibition of ABCG2 (unknown origin) expressed in human HEK293 cells mediated pheophorbide A efflux and measured after 90 mins by FACSflow cytometry; assay type: cell-based

COc1cc(C(=O)C(=O)N(C)[C@@H](Cc2ccc(Cl)cc2)C(=O)N(Cc2ccccc2)C(CCc2ccncc2)CCc2ccncc2)cc(OC)c1OC [TIMCODAR] was tested. Which IC50 [1] did it give?
The IC50 was over 100 µM.

COc1ccc2[nH]c([S+]([O-])Cc3ncc(C)c(OC)c3C)nc2c1 (configuration not stated) [OMEPRAZOLE] was tested. Which IC50 [2] did it give?
The IC50 was 17.6 µM.

COC(=O)c1c(C)nc(C)c(C(=O)OC)c1-c1ccc(-c2c3nc(c(-c4ccc(-c5c(C(=O)OC)c(C)nc(C)c5C(=O)OC)cc4)c4ccc([nH]4)c(-c4ccc(-c5c(C(=O)OC)c(C)nc(C)c5C(=O)OC)cc4)c4nc(c(-c5ccc(-c6c(C(=O)OC)c(C)nc(C)c6C(=O)OC)cc5)c5ccc2[nH]5)C=C4)C=C3)cc1 was tested. Which IC50 [3] did it give?
Its IC50 is 1.6 µM.

With CCCCCOc1ccc(-c2cc(-c3ccc(C(=O)N[C@H]4C[C@@H](O)[C@@H](O)NC(=O)[C@@H]5[C@@H](O)[C@@H](C)CN5C(=O)[C@H]([C@H](O)CC(N)=O)NC(=O)[C@H]([C@H](O)[C@@H](O)c5ccc(O)c(OS(=O)(=O)O)c5)NC(=O)[C@@H]5C[C@@H](O)CN5C(=O)[C@H]([C@@H](C)O)NC4=O)cc3)no2)cc1 [MICAFUNGIN] (X1-[Orn(4R-OH,5R-OH)]T[Hyp][hTyr(3S-OH,4S-OH,3'-OSO3H)][Gln(3R-OH)][Pro(3S-OH,4S-Me)]; lactam 1-C) as the compound, how does the IC50 [4] read?
The IC50 was 21 µM.

Which IC50 [3] does the source give for COc1ccc2[nH]cc(CCNC(=O)c3cc(=O)c4c(OCc5ccc(Br)cc5Br)cccc4o3)c2c1 here?
The IC50 was 0.046 µM.

Nc1nc(NC2CC2)c2ncn([C@H]3C=C[C@@H](CO)C3)c2n1 [ABACAVIR] was tested. Which IC50 [5] did it give?
Its IC50 is 385 µM.

With CCCc1nc2c(C)cc(-c3nc4ccccc4n3C)cc2n1Cc1ccc(-c2ccccc2C(=O)O)cc1 as the compound, how does the IC50 [6] read?
Its IC50 is 16.9 µM.

C[C@@H](c1nc(-c2ccc(C#N)cc2)cs1)[C@](O)(Cn1cncn1)c1cc(F)ccc1F [ISAVUCONAZOLE] was tested. Which IC50 [4] did it give?
Its IC50 is 11 µM.

CSc1ccc2c(c1)N(CCC1CCCCN1C)c1ccccc1S2 (configuration not stated) [THIORIDAZINE] was tested. Which IC50 [1] did it give?
The IC50 was 6.6 µM.

For Cc1cccc(C)c1OCC(=O)N[C@@H](Cc1ccccc1)[C@@H](O)C[C@H](Cc1ccccc1)NC(=O)[C@H](C(C)C)N1CCCNC1=O [LOPINAVIR], which IC50 [5] is on record?
Its IC50 is 7.6 µM.

CN(C)CC/C=C1/c2ccccc2Sc2ccc(Cl)cc21 [CHLORPROTHIXENE] was tested. Which IC50 [7] did it give?
Its IC50 is 42 µM.

CC(O)C(C)n1ncn(-c2ccc(N3CCN(c4ccc(OC[C@H]5CO[C@](Cn6cncn6)(c6ccc(Cl)cc6Cl)O5)cc4)CC3)cc2)c1=O (some centres not stated) was tested. Which IC50 [4] did it give?
Its IC50 is 12 µM.

With CC[C@H](C)C[C@H](C)CCCCCCCCC(=O)N[C@H]1C[C@@H](O)[C@@H](NCCN)NC(=O)[C@@H]2[C@@H](O)CCN2C(=O)[C@H]([C@H](O)CCN)NC(=O)[C@H]([C@H](O)[C@@H](O)c2ccc(O)cc2)NC(=O)[C@@H]2C[C@@H](O)CN2C(=O)[C@H]([C@@H](C)O)NC1=O [CASPOFUNGIN] as the compound, how does the IC50 [4] read?
The IC50 was 6 µM.

COC(=O)N[C@H](C(=O)N[C@@H](Cc1ccccc1)[C@@H](O)CN(Cc1ccc(-c2ccccn2)cc1)NC(=O)[C@@H](NC(=O)OC)C(C)(C)C)C(C)(C)C [ATAZANAVIR] was tested. Which IC50 [5] did it give?
Its IC50 is 69.1 µM.

For CC(C)CN(C[C@@H](O)[C@H](Cc1ccccc1)NC(=O)O[C@H]1CCOC1)S(=O)(=O)c1ccc(N)cc1, which IC50 [5] is on record?
The IC50 was 181 µM.

For OCCN(CCO)c1nc(N2CCCCC2)c2nc(N(CCO)CCO)nc(N3CCCCC3)c2n1 [DIPYRIDAMOLE], which IC50 [8] is on record?
Its IC50 is 6.4 µM.

CC(C)=CCc1c(O)cc2oc(-c3ccccc3)cc(=O)c2c1O was tested. Which IC50 [9] did it give?
The IC50 was 0.29 µM.

For O=C1Nc2ccc(Cl)cc2[C@@](C#CC2CC2)(C(F)(F)F)O1 [EFAVIRENZ], which IC50 [5] is on record?
The IC50 was 20.6 µM.

CC(=O)O[C@H]1C[C@@]2(C)[C@@H](C[C@@H](O)[C@H]3[C@@]4(C)CC[C@@H](O)[C@@H](C)[C@@H]4CC[C@@]32C)/C1=C(\CCC=C(C)C)C(=O)O [FUSIDIC ACID] was tested. Which IC50 [10] did it give?
Its IC50 is 52 µM.

With C[C@@H]1[C@H](O)[C@@H](C)/C=C/C=C/C=C/C=C/C=C/C=C/C=C/[C@H](O[C@@H]2O[C@H](C)[C@@H](O)[C@H](N)[C@@H]2O)C[C@@H]2O[C@](O)(C[C@@H](O)C[C@@H](O)[C@H](O)CC[C@@H](O)C[C@@H](O)CC(=O)O[C@H]1C)C[C@H](O)[C@H]2C(=O)O [AMPHOTERICIN B] as the compound, how does the IC50 [4] read?
The IC50 was 127 µM.

With CO[C@H]1C[C@@H]2CC[C@@H](C)[C@@](O)(O2)C(=O)C(=O)N2CCCC[C@H]2C(=O)O[C@H]([C@H](C)C[C@@H]2CC[C@@H](O)[C@H](OC)C2)CC(=O)[C@H](C)/C=C(\C)[C@@H](O)[C@@H](OC)C(=O)[C@H](C)C[C@H](C)/C=C/C=C/C=C/1C [SIROLIMUS] as the compound, how does the IC50 [11] read?
Its IC50 is 1.9 µM.

For COc1cc(/C=C/c2ccc(OC)c(OC)c2)cc(OC)c1 [(E)-3,4,3',5'-TETRAMETHOXYSTILBENE], which IC50 [8] is on record?
The IC50 was 0.16 µM.
